System: HEK-293, SH-SY5Y, primary human keratinocytes, THP-1 differentiated with PMA
Test: Transcriptomics (microarray) after anatabine treatment of 4 cell systems
Format: cell-based
Experimental: To investigate the signalling pathways triggered by anatabine, 4 cell systems (HEK-293, SH-SY5Y, primary human keratinocytes, THP-1 differentiated with PMA) were treated with 4 concentrations of anatabine (100, 200, 300, 400 μM) for 6 hours, after which transcriptomics measurements were performed.
HEK-293 is a human embryonic kidney cell line devoid of nicotinic receptors. It can be relatively easily transfected and therefore used as a tool to express various subtypes of nicotinic receptors or reporter genes such as NRF2-driven luciferase, which were also used in this study. HEK-293 were seeded in a cell culture medium consisting of EMEM, 10% FBS, 1% NEAA, 1% Sodium Pyruvate and 1% PenStrep. 60,000 cells were seeded per well of a 96-well plate.
SH-SY5Y is a human bone marrow neuroblastoma cell line that has been used by researchers to investigate the potential anti-inflammatory effect of anatabine. SH-SY5Y were seeded in a cell culture medium consisting of 50% EMEM and 50% Ham's F12 nutrient and including 10% FBS, 1% PenStrep and 1% L-glutamine. 15,000 cells were seeded per well of a 96-well plate.
Primary human keratinocytes have been included as a relevant cell system for skin. The batch of keratinocytes was selected in order to have healthy, non-smoker, 20-60 years old, Caucasian donors. The keratinocytes were seeded in a cell culture medium consisting of KGM-Gold Keratinocyte Growth Medium. 17,500 cells were seeded per well of a 96-well plate.
The human leukaemia-derived monocytic cell line THP-1, is the most widely used in vitro model for primary human macrophage investigations. THP-1 cells were seeded in a cell culture medium consisting of RPMI, 10% FBS and 1% PenStrep and in the presence of 40 ng/ml phorbol 12-myristate 13-acetate (PMA). 100,000 cells were seeded per well of a 96-well plate, having a total volume of […] per well. 48 hours later the medium was changed to the same culture medium but without PMA, and the culture was left to rest for 24 h before treatment.
All four cell systems were seeded in 96 well plates at a total volume of 190 μl per well to allow for a 20× compound stimulation with a volume of 10 μL. 24 hours after seeding—or in the case of THP-1, 24 h after changing to non-PMA medium—four cell systems were stimulated with anatabine (prepared at 20× the corresponding target concentration) to obtain a final molar concentration of 100, 200, 300, 400 μM anatabine.
In order to generate the transcriptomics data, the four cell systems were exposed to various concentrations of anatabine (100, 200, 300, 400 μM) for 6 hours. The transcriptome of the cells was analysed by a microarray-based analysis.
The cells were lysed using RLT BUFFER (Qiagen Hilden, Germany) for all cell types except the keratinocytes which were lysed with QIAZOL LYSIS REAGENT (Qiagen). RNA isolation was performed with RNEASY MICRO KIT (Qiagen). RNA quantification was assessed with a NANODROP 1000 (ThermoFisher Waltham, MA, USA) and quality of the total RNA was verified acquiring a profile with a 2100 BIOANALYZER (Agilent Technologies, Santa Clara, CA, USA), requiring an RIN number greater than 6.0. 50 ng of total RNA were processed as described in the TECAN/NUGEN OVATION RNA AMPLIFICATION SYSTEM V2 (Tecan Mannedorf, Switzerland). Human Genome U133 Plus 2.0 array were used for hybridization on a THERMOFISHER OVEN 645, washed on THERMOFISHER GENECHIP™ FLUIDICS STATIONS 450DX (protocol FS450-0004) and scanned on a THERMOFISHER GENECHIP™ SCANNER 3000 7G.
Quality control check of all chips was done with the BIOCONDUCTOR affyPLM R package version 1.64. Following quality control procedures, differential gene expression analysis was performed using the BIOCONDUCTOR LIMMA R package version 3.44.3. Pairwise comparisons at the gene level, called systems response profiles (SRP), were computed by comparing each concentration-treatment with its respective vehicle control. […]

Structure (SMILES): C1=CCC(c2cccnc2)NC1 (racemic) [anatabine, 1,2,3,6-Tetrahydro-2,3′-bipyridine]
- Fold Change (ATF3 gene, KEAT, anatabine 100 μM): 0.2106
- Fold Change (ATF3 gene, KEAT, anatabine 200 μM): 0.3169
- Fold Change (ATF3 gene, KEAT, anatabine 300 μM): 1.893
- Fold Change (ATF3 gene, KEAT, anatabine 400 μM): 1.185
- Fold Change (ATF3 gene, SHSY5Y, anatabine 100 μM): 0.04701
- Fold Change (ATF3 gene, SHSY5Y, anatabine 200 μM): 0.3038
- Fold Change (ATF3 gene, SHSY5Y, anatabine 300 μM): 0.6207
- Fold Change (ATF3 gene, SHSY5Y, anatabine 400 μM): 1.206
- Fold Change (ATF3 gene, THP1, anatabine 100 μM): −0.02648
- Fold Change (EEF2K gene, THP1, anatabine 300 μM): −0.3419
- Fold Change (EEF2K gene, THP1, anatabine 400 μM): −0.7245
- Fold Change (EID3 gene, HEK293, anatabine 100 μM): 0.1833
- Fold Change (EID3 gene, HEK293, anatabine 200 μM): 0.5345
- Fold Change (EID3 gene, HEK293, anatabine 300 μM): 0.9247
- Fold Change (EID3 gene, HEK293, anatabine 400 μM): 0.9528
- Fold Change (EID3 gene, KEAT, anatabine 100 μM): 1.694
- Fold Change (EID3 gene, KEAT, anatabine 200 μM): 1.995
- Fold Change (EID3 gene, KEAT, anatabine 300 μM): 3.641
- Fold Change (EID3 gene, KEAT, anatabine 400 μM): 3.12
- Fold Change (EID3 gene, SHSY5Y, anatabine 100 μM): 0.2913
- Fold Change (EID3 gene, SHSY5Y, anatabine 200 μM): 0.3156
- Fold Change (EID3 gene, SHSY5Y, anatabine 300 μM): 0.6868
- Fold Change (EID3 gene, SHSY5Y, anatabine 400 μM): 1.05
- Fold Change (EID3 gene, THP1, anatabine 100 μM): 0.1121
- Fold Change (EID3 gene, THP1, anatabine 200 μM): 0.4679
- Fold Change (EID3 gene, THP1, anatabine 300 μM): 0.5698
- Fold Change (EID3 gene, THP1, anatabine 400 μM): 1.615
- Fold Change (FAM53C gene, HEK293, anatabine 100 μM): 0.3792
- Fold Change (FAM53C gene, HEK293, anatabine 200 μM): 0.423
- Fold Change (FAM53C gene, HEK293, anatabine 300 μM): 0.6969
- Fold Change (FAM53C gene, HEK293, anatabine 400 μM): 0.7367
- Fold Change (FAM53C gene, KEAT, anatabine 100 μM): 0.1269
- Fold Change (FAM53C gene, KEAT, anatabine 200 μM): 0.2194
- Fold Change (FAM53C gene, KEAT, anatabine 300 μM): 1.067
- Fold Change (FAM53C gene, KEAT, anatabine 400 μM): 0.6853
- Fold Change (FAM53C gene, SHSY5Y, anatabine 100 μM): 0.1212
- Fold Change (FAM53C gene, SHSY5Y, anatabine 200 μM): 0.4283
- Fold Change (FAM53C gene, SHSY5Y, anatabine 300 μM): 0.5427
- Fold Change (FAM53C gene, SHSY5Y, anatabine 400 μM): 0.873
- Fold Change (FAM53C gene, THP1, anatabine 100 μM): 0.144
- Fold Change (FAM53C gene, THP1, anatabine 200 μM): 0.2515
- Fold Change (FAM53C gene, THP1, anatabine 300 μM): 0.6296
- Fold Change (FAM53C gene, THP1, anatabine 400 μM): 0.8729
- Fold Change (FBXO30 gene, HEK293, anatabine 100 μM): 0.001539
- Fold Change (FBXO30 gene, HEK293, anatabine 200 μM): 0.2872
- Fold Change (FBXO30 gene, HEK293, anatabine 300 μM): 0.3586
- Fold Change (FBXO30 gene, HEK293, anatabine 400 μM): 0.5949
- Fold Change (FBXO30 gene, KEAT, anatabine 100 μM): 0.619
- Fold Change (FBXO30 gene, KEAT, anatabine 200 μM): 0.8807
- Fold Change (FBXO30 gene, KEAT, anatabine 300 μM): 1.832
- Fold Change (FBXO30 gene, KEAT, anatabine 400 μM): 1.526
- Fold Change (FBXO30 gene, SHSY5Y, anatabine 100 μM): −0.5195
- Fold Change (FBXO30 gene, SHSY5Y, anatabine 200 μM): 0.3153
- Fold Change (FBXO30 gene, SHSY5Y, anatabine 300 μM): 0.5475
- Fold Change (FBXO30 gene, SHSY5Y, anatabine 400 μM): 0.9269
- Fold Change (FBXO30 gene, THP1, anatabine 100 μM): 0.002856
- Fold Change (FBXO30 gene, THP1, anatabine 200 μM): 0.427
- Fold Change (FBXO30 gene, THP1, anatabine 300 μM): 0.6595
- Fold Change (FBXO30 gene, THP1, anatabine 400 μM): 1.224
- Fold Change (G0S2 gene, HEK293, anatabine 100 μM): −0.159
- Fold Change (G0S2 gene, HEK293, anatabine 200 μM): −0.1114
- Fold Change (G0S2 gene, HEK293, anatabine 300 μM): −0.6854
- Fold Change (G0S2 gene, HEK293, anatabine 400 μM): −0.7292
- Fold Change (G0S2 gene, KEAT, anatabine 100 μM): −0.3516
- Fold Change (G0S2 gene, KEAT, anatabine 200 μM): −0.5508
- Fold Change (G0S2 gene, KEAT, anatabine 300 μM): −1.361
- Fold Change (G0S2 gene, KEAT, anatabine 400 μM): −1.016
- Fold Change (G0S2 gene, SHSY5Y, anatabine 100 μM): −0.0648

From patent US20260224547A1, “COMPOSITIONS COMPRISING ANATABINE AND USES THEREOF” (Philip Morris Products S.A., priority 2021, published 2026)
